Experiments:
[1] = Hair straightening, treatment with ammonium thioglycolate and hydrogen peroxide (Example 6); conditions: 1 mg/mL peptide, 30 minutes; ammonium thioglycolate 10% v/v pH 10, hydrogen peroxide 2% v/v; after 30 shampoo wash/dry cycles; treated samples with and without peptide
Experimental: (§1) Tresses of curly Brazilian hair were cut into ½ inch wide samples. The tresses were then washed with shampoo and allowed to air dry. The hair then soaked in a solution of ammonium thioglycolate (10% v/v) in sodium hydroxide pH 10 for 30 minutes at room temperature. After this time, the hair was rinsed with DI water. The hair was then blow dried under medium heat while gently pulling the hair into a straight shape. A flat iron was then applied to the hair at 400° F.
(§2) In some samples, a solution of the peptide corresponding to SEQ ID NO.8 in DI water at a concentration of 1 mg/mL was then applied to hair until the hair was saturated, and the hair was allowed to sit for 30 minutes at room temperature. In these samples, the hair was then blow dried under medium heat while gently pulling the hair into a straight shape. A flat iron was then applied to the hair at 400° F.
For all hair samples, a solution of hydrogen peroxide (2% v/v) was then applied to the hair until the hair was saturated, and the hair was allowed to sit for 30 minutes at room temperature. The hair was then rinsed with DI water.
The straightened hair was washed with shampoo and allowed to air dry, and this washing/drying procedure was repeated a total of 30 times.

[2] = Hair straightening, treatment with lye and glucose oxidase (Example 3); conditions: 1 mg/mL peptide, 30 minutes; NaOH pH 12, glucose oxidase/glucose fixation; after 10 shampoo wash/dry cycles; only slight waves remained
Experimental: as §1, with “of” for “of ammonium thioglycolate (10% v/v) in”, “12” for “10”
A solution of the peptide corresponding to SEQ ID. NO. 8 in DI water at a concentration of 1 mg/mL was then applied to hair sample until the hair sample was saturated, and the hair was allowed to sit for 30 minutes at room temperature. The hair was then blow dried under medium heat while gently pulling the hair into a straight shape. A flat iron was then applied to the hair at 400° F.
(§3) A solution of glucose oxidase (2 mg/mL) and glucose (18 mg/mL) in 50 mM sodium phosphate buffer pH 5.8 was then applied to the hair until the hair was saturated, and the hair was allowed to sit for 30 minutes at room temperature. The hair was then rinsed with DI water.
(§4) The straightened hair was washed with shampoo and allowed to air dry, and this washing/drying procedure was repeated a total of 10 times.

[3] = Hair straightening, treatment with lye and hydrogen peroxide (Example 2); conditions: 1 mg/mL peptide; after 10 shampoo wash/dry cycles
Experimental: as §1, with “of” for “of ammonium thioglycolate (10% v/v) in”, “12” for “10”
Six individual solutions of each designed keratin binding peptide corresponding to SEQ ID NO. 3 through SEQ ID NO. 8 were dissolved in DI water at a concentration of 1 mg/ml and then applied to individual hair samples until the hair sample was saturated, and the hair sample was allowed to sit for 30 minutes at room temperature. The hair sample was then blow dried under medium heat while gently pulling the hair into a straight shape. A flat iron was then applied to the hair at 400° F.
L'Oreal® Oreor Creme 40 volume developer was then applied to the hair samples until the hair sample was saturated, and then allowed to sit for 30 minutes at room temperature. The hair samples were then rinsed with DI water.
(§5) Each straightened hair sample was washed with shampoo and allowed to air dry, and this washing/drying procedure was repeated a total of 10 times. […] There was little identifiable difference in efficacy among the six peptides, although peptides corresponding to SEQ ID NO. 5, SEQ ID NO. 6, SEQ ID NO. 7 and SEQ ID NO. […] 3 and SEQ ID NO.4.

[4] = Peptide stability to shampoo washes, fluorescence of dye-labeled peptide on hair (Example 9); format: binding; conditions: Alexa Fluor 647 labeled peptide 1 mg/mL; virgin (FIG. 9a) and bleached (FIG. 9b) hair
Experimental: To separate solutions of 500 μL of DI water was added 1 mg of one of the peptides corresponding to SEQ ID NOs. 1 and 2-17. Then, a solution of 84 mg of sodium bicarbonate in 1 mL of DI water was prepared, and 12 μL of this solution was added to each peptide solution. Immediately prior to conjugation, 5 mg of Alexa Fluor 647 NHS ester (Thermo Fisher Scientific) dye molecule was dissolved in 500 μL of DMSO, and 15 μL of this solution was added to each peptide solution. After the dye was added, the solution was incubated at 4° C. in the dark for 16 hours. Removal of unbound dye molecules was carried out using a PD MiniTrap G-10 column (Cytiva) using DI water as the elutant. Fractions containing dye-labeled peptide were pooled and diluted to final peptide concentrations of 1 mg/mL.
Hair samples were then treated according to Example 8, except that during treatment with peptide, hair was treated with a single dye-labeled peptide corresponding to SEQ ID NOs. 1 and 2-17. For each set of conditions, three separate straightening protocols were performed.
Fluorescence images were collected on a EVOS M7000 Imaging System (Thermo Fisher Scientific) using a Cy5 filter set. Images were collected using a 0.1 second exposure time at a light intensity of 0.0023. Following fluorescence measurements, hair samples were then washed with shampoo an additional 9 times, towel dried, and fluorescently imaged again.
Image files were processed as 16-bit grayscale images using ImageJ software. […] The average and standard deviation of fluorescence intensity in the remaining regions (corresponding to hair strands containing fluorescently labeled peptides) was then directly calculated.

[5] = Hair straightening, treatment with heat only (Example 1); conditions: 1 mg/mL peptide; after 10 shampoo wash/dry cycles
Experimental: Tresses of curly Brazilian hair were cut into ½ inch wide samples. The tresses were then washed with shampoo and allowed to air dry. The hair was straightened using a flat iron at 460° F. Once the hair was visibly straight, the hair was wrapped tightly in aluminum foil. A flat iron was applied to a section of the wrapped hair by holding the flat iron to the section for 10 seconds. This process was repeated until all sections of the hair were flat ironed.
Six individual solutions of each peptide corresponding to SEQ ID NO. 3 through SEQ ID NO 8 were dissolved in de-ionized (“DI”) water at a concentration of about 1 milligram per milliliter (“mg/mL”) and then applied to separate hair samples until the hair sample was saturated. The saturated hair was allowed to sit for 1 hour at 37° C. The hair was then blow dried under medium heat while gently pulling the hair into a straight shape. A flat iron was then applied to the hair at 400° F.
as §5, with “The” for “Each”, “hair” for “hair sample”, “six designed keratin binding” for “six”, “5” for “5,”

[6] = Hair straightening, treatment with glutathione reductase and hydrogen peroxide (Example 4); conditions: 1 mg/mL peptide, 30 minutes; glutathione reductase/glutathione/NADP relaxation, 40 volume developer fixation; after 10 shampoo wash/dry cycles; only slight waves remained
Experimental: Tresses of curly Brazilian hair were cut into ½ inch wide samples. The tresses were then washed with shampoo and allowed to air dry. The hair then soaked in a solution of glutathione reductase (0.01 mg/mL), glutathione (100 mg/mL), and nicotinamide adenine dinucleotide phosphate (0.083 mg/mL) in 50 mM sodium phosphate buffer pH 8 for 30 minutes at room temperature. After this time, the hair was rinsed with DI water. The hair was then blow dried under medium heat while gently pulling the hair into a straight shape. A flat iron was then applied to the hair at 400° F.
as §2, with “A solution” for “In some samples, a solution”, “of a” for “of the”, “to har” for “to hair”, “temperature. The” for “temperature. In these samples, the”
L'Oreal® Oreor Creme 40 volume developer was then applied to the hair until the hair was saturated, and the hair was allowed to sit for 30 minutes at room temperature. The hair was then rinsed with DI water.
as §4

[7] = Hair straightening, treatment with glutathione and glucose oxidase (Example 5); conditions: 1 mg/mL peptide, 30 minutes; glutathione pH 9 relaxation, glucose oxidase/glucose fixation; after 10 shampoo wash/dry cycles; only slight waves remained
Experimental: as §1, with “glutathione (100 mg/mL)” for “ammonium thioglycolate (10% v/v)”, “9” for “10”
as §2, with “A” for “In some samples, a”, “The” for “In these samples, the”
as §3, §4

Substance	straightening efficiency compared among the six peptides (vs SEQ ID NO. 3 and SEQ ID NO. 4) [3]	change in fluorescence intensity between 1 and 10 shampoos (retention of peptide in hair) [4]	straightening efficiency compared among the six peptides (vs SEQ ID NO. 3 and SEQ ID NO. 4) [5]	other results
SEQ ID NO. 8: cysteine-substituted peptide with Q13C; SEQ ID NO. 16 is the same without Q13C (CGQVCHLQCAFSCYKKCELFPKC) [cysteine-substituted peptide with Q13C; 16 is the same without Q13C]	slightly higher straightening efficiency	no statistically significant decrease	slightly higher straightening efficiency	hair straightening compared to an untreated sample [1]: significantly straightened; hair straightening compared to untreated samples [2]: significantly straightened; hair straightening compared to untreated samples [6]: significantly straightened; hair straightening compared to untreated samples [7]: significantly straightened
SEQ ID NO. 4: Q13C substitution relative to SEQ ID NO. 1 plus 3 additional cysteine substitutions (QGQVCHLQCAFSCYKKCELFPK)		no statistically significant decrease		
SEQ ID NO. 15: differs from SEQ ID NO. 7 in lacking Q13C; 10 cysteine substitutions, unique Q3C and/or Q8C (CGCCCHLCCCFCQYKKCELFPKC)		strong retention		
SEQ ID NO. 5: designed keratin binding peptide with cysteine substitutions relative to SEQ ID NO: 1 (QGQCCHLQCCFSQYKKCELFPKC)	slightly higher straightening efficiency		slightly higher straightening efficiency	
SEQ ID NO. 11: Q13C substitution relative to SEQ ID NO. 1 plus 2 additional cysteine substitutions (QGQVQHLQCAFSCYKKCELFPK)		no statistically significant decrease		
SEQ ID NO. 7: cysteine-substituted peptide with Q13C; SEQ ID NO. 15 is the same without Q13C (CGCCCHLCCCFCCYKKCELFPKC) [cysteine-substituted peptide with Q13C; 15 is the same without Q13C]	slightly higher straightening efficiency	no statistically significant decrease	slightly higher straightening efficiency	
SEQ ID NO. 14: differs from SEQ ID NO. 6 in lacking the Q13C substitution (CGQCCHLQCCFCQYKKCELFPKC)		significant decrease		
SEQ ID NO. 16: differs from SEQ ID NO. 8 in lacking the Q13C substitution (CGQVCHLQCAFSQYKKCELFPKC)		significant decrease		
SEQ ID NO. 6: cysteine-substituted peptide with Q13C; SEQ ID NO. 14 is the same without Q13C (CGQCCHLQCCFCCYKKCELFPKC) [cysteine-substituted peptide with Q13C; 14 is the same without Q13C]	slightly higher straightening efficiency	no statistically significant decrease	slightly higher straightening efficiency	

From patent publication US20250262140A1, “Compositions and Method of Use for Hair Straightening and Shaping” (Olaplex, Inc., priority 2020, published 2025)
